Results as given in patent US12337004B2, “Coumarin-modified androgens for the treatment of prostate cancer” (Health Research, Inc., priority 2019, dated 2025).

Experiments:
[1] = test system: KLK2; test: Western blot of AR-regulated protein expression; assay type: cell-based; settings: CaP cell lines
[2] = test system: ARE-luciferase; test: ARE-luciferase transactivation; assay type: cell-based
[3] = test system: KLK2; test: qRT-PCR of AR-regulated gene KLK2; assay type: cell-based; settings: 24 hours; VCaP, LAPC-4, LNCaP, CWR-R1 and 22rv1 cells
[4] = test system: 22Rv1 cells; test: MTT cell growth, 22Rv1; assay type: cell-based; settings: six days; data not shown
[5] = test system: VCaP cells; test: MTT cell growth, VCaP; assay type: cell-based
Method: (§1) Identification of a 3α-oxidoreductase inhibitors: Various non-steroidal compounds were tested for anti-neoplastic activity by screening against PC-3 CaP cells. Coumarin-labeled androgens were developed to track changes in androgen metabolism pathways in response to castration or androgen metabolism inhibition using in vitro and in vivo CaP cell models.
(§2) VCaP, CWR-R1 and PC-3 cells were treated for six days with complete culture media (CM), serum-free culture media (SFM), bicalutamide (Bic) at 10 μM, the coumarin C at 20 μM, DHT at 10 nM, DHT-17C at 20 nM and DHT-3C at 20 nM (FIG. 20). […] MTT analysis was performed to compare cell growth impairment of VCaP cells treated with DHT-17C versus enzalutamide. Cells were treated with DHT-17C at 1 nM, 12 nM, 20 nM, 50 nM or 100 nM concentrations, or enzalutamide at 1 μM, 12 μM, 20 μM, 50 μM or 100 μM concentrations. […] MTT performed using ezanlutamide (20 uM) or DHT-17C (50 nM) treated mutant AR and AR-V7 positive CWR-R1 cells supported VCaP MTT data (FIG. 22).

[6] = test system: CWR-R1 cells; test: MTT cell growth, CWR-R1; assay type: cell-based, human; settings: six days
Method: as §1, §2

[7] = test system: PC-3 cells; test: MTT cell growth, AR-negative PC-3; assay type: cell-based; settings: six days, 20 nM
Method: as §1, §2

[8] = target: T1, AR-GFP (Homo sapiens, UniProt P10275); test: ImageStream nuclear co-localization with AR-GFP; assay type: cell-based; settings: VCaP-AR-GFP and PC-3-AR-GFP cells
T1 construct: expressed in transfected cells; host or cells: VCaP, PC-3 (also LAPC-4, CWR-R1, 22Rv1, DU145)
T1 sequence (P10275 1-920): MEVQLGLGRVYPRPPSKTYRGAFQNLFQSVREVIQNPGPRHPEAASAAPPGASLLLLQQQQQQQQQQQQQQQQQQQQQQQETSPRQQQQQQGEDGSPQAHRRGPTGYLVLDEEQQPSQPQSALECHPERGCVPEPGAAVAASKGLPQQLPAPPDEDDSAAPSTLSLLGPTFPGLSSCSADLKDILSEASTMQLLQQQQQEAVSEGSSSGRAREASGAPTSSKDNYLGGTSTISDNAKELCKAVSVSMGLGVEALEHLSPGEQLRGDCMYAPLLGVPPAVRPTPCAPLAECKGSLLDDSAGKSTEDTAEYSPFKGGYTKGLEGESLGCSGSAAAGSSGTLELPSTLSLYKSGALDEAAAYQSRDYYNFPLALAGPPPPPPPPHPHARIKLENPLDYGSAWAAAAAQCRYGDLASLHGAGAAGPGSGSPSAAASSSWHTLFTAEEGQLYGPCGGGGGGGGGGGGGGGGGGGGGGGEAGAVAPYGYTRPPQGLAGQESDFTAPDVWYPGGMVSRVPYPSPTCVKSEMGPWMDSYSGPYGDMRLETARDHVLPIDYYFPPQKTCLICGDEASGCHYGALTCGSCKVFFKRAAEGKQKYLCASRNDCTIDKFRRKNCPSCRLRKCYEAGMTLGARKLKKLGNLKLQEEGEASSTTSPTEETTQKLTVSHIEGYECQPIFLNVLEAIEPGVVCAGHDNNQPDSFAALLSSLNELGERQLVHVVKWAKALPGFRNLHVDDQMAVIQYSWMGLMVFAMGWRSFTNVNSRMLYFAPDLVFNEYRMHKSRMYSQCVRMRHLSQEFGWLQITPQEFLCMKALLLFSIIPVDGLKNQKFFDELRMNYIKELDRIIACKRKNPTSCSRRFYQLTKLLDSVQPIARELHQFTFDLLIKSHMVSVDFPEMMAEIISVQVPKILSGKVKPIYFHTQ
Source text: Androgen-sensitive AR-positive LAPC-4 and VCaP, castration-recurrent and AR-positive CWR-R1 and CWR-22rv1 (22rv1), and AR-negative PC-3 and DU145 cells were transfected with either an empty pCMV expression plasmid (control) or a pCMV plasmid that encoded a wild-type AR tagged with a C-terminal green fluorescent protein (GFP; AR-GFP). AR-positive CaP cell lines were transfected with AR-GFP to assess if DHT-17C or DHT-3C co-localized with AR and translocated to the nucleus.
AR positive CaP cell lines were treated for 16 hours with androgen-free, serum-free complete media (SFM) alone, or SFM that contained 20 nM or 50 nM fluorescent-androgens or C alone. The time points were chosen to measure differences in uptake of the fluorescent-androgens and nuclear or cytosolic localization of the fluorescent-androgens and/or AR-GFP.
Serum-free complete media (SFM)^2 was used to androgen deprive cells.

[9] = test system: LNCaP cells; test: MTT cell growth, LNCaP; assay type: cell-based; settings: six days; data not shown
[10] = target: T2, AR-V2-GFP (Homo sapiens, UniProt P10275); test: ImageStream co-localization with AR-V2-GFP; assay type: cell-based; settings: VCaP and PC-3 cells that stably expressed AR-V2-GFP
T2 construct: stably expressed AR170 LBD only with splice variant V2 (AR-V2-GFP); expressed in transfected cells; host or cells: VCaP, PC-3
T2 sequence (P10275 1-388 isoform P10275-2): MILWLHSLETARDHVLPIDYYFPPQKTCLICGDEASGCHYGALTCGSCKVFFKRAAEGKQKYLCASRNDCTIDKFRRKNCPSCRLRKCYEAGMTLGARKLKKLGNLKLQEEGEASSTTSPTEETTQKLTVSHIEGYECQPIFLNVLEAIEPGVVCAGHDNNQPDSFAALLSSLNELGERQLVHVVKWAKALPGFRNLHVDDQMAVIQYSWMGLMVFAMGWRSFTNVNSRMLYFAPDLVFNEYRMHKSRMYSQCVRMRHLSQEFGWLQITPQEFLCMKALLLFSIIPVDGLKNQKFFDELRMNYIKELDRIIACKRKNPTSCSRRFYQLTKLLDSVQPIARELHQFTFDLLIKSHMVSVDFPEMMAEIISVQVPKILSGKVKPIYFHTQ
Method: ImageStream studies were repeated using VCaP and PC-3 cells that stably expressed AR-V2 (splice-variant that lacked the N-terminus) with C-terminal GFP (AR-V2-GFP). […] ImageStream data was confirmed using immunoprecipation (IP) studies performed with a DHT-targeted antibody.
Serum-free complete media (SFM)^2 was used to androgen deprive cells. PC-3 cells that contained empty plasmid were treated with SFM alone, SFM with C or SFM with DHT-3C.

[11] = target: T3, AR-V2 (Homo sapiens, UniProt P10275); assay type: cell-based; settings: DHT-17C versus enzalutamide
T3 construct: stably expressed AR170 LBD only with splice variant V2 (AR-V2-GFP); expressed in transfected cells; host or cells: VCaP, PC-3
T3 sequence (P10275 1-388 isoform P10275-2): T2 sequence (P10275 1-388 isoform P10275-2)
Source text: (§4) ImageStream was used to perform competition studies between DHT-17C and enzalutamide for AR-GFP or AR-V2 to establish that DHT-17C targets the AR-LBD.

[12] = target: T1, AR-GFP; assay type: cell-based; settings: DHT-17C versus enzalutamide
Source text: as §4

[13] = test system: CV-1 monkey kidney cell line; test: MTT cell growth, CV-1; assay type: cell-based; settings: non-CaP cell line
[14] = test system: LAPC-4 cells; test: MTT cell growth, LAPC-4; assay type: cell-based; settings: six days; data not shown
[15] = test system: 293 human kidney cell line; test: MTT cell growth, 293; assay type: cell-based; settings: non-CaP cell line
[16] = test system: DU145 cells; test: MTT cell growth, DU145; assay type: cell-based; settings: AR-negative
[17] = target: T4, RDH16-YFP (Homo sapiens, UniProt O75452); test: ImageStream co-localization with RDH16-YFP; assay type: cell-based; settings: PC-3-RDH16-YFP cells
T4 construct: expressed in transfected cells; host or cells: PC-3
T4 sequence (O75452 1-317): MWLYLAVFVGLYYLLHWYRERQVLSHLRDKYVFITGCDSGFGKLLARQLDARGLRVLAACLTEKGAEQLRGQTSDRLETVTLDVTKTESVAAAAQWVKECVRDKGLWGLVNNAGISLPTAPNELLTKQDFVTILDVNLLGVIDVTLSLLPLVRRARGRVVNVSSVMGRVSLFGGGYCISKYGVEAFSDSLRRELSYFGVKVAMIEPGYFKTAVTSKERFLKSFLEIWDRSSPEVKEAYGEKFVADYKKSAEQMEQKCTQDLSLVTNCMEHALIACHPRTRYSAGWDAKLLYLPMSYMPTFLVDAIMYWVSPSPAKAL
Method: (§3) ImageStream (ImageStream^X-MKII Flow Cytometer [Amnis, Seattle, WA]) is a hybrid technique that combines the statistical power of flow cytometry and the imaging capability of fluorescence microscopy that was adapted to study simultaneously DIOL-17C compartmental localization and activity. ImageStream data were normalized against single-stained controls and analyzed using Image Data Exploration and Analysis Software (IDEAS; Amnis). The similarity score was measured by comparing two images of the same cell pixel by pixel. If the similarity score was >0, the two objects (RDH16-YFP and DIOL-17C) were co-localized.

[18] = test system: 3α-oxidoreductase; test: LC-MS/MS of CaP cells treated with DIOL-17C; assay type: in vitro ADME
[19] = target: T4, RDH16-YFP; test: ImageStream competition for RDH16-YFP; assay type: cell-based; settings: PC-3 cells that stably expressed RDH16-YFP
Method: as §3

## C[C@]12CCC(=O)C[C@@H]1CC[C@@H]1[C@@H]2CC[C@]2(C)[C@@H](O)CC[C@@H]12 [DHT, 5α-dihydrotestosterone, reference compound]
[1]
  AR-regulated protein expression levels: produced similar AR-regulated protein expression levels
[2]
  ARE-luciferase signal: produced ARE-luciferase signal
[3]
  KLK2 transcript induction: produced similar inductions of expression

## C[C@]12CCC3C(CC[C@H]4CC(=O)CC[C@]34C)C1CC[C@@H]2OCC(=O)NCCc1cc(=O)oc2c3c4c(cc12)CCCN4CCC3 (stereo partly drawn) [DHT-17C, N-2′-(2,3,4,5-Tetrahydro-1H,4H-10-keto-11-oxa-3α-azabenzo[de]anthracenyl)ethyl (3-keto-5α-androstan-17β-yl)glycolamide]
[4]
  22Rv1 cell growth (MTT): produced similar responses
[5]; DHT-17C 20 nM vs enzalutamide 20 μM, AR-V7 positive VCaP
  dose lower than enzalutamide for VCaP growth inhibition: 1000 ×
[5]; DHT-17C at 1, 12, 20, 50 or 100 nM
  VCaP cell growth impairment versus enzalutamide: impaired VCaP cell growth to similar extents as enzalutamide
[5]; six days, DHT-17C at 20 nM, DHT-3C at 20 nM
  VCaP cell growth (MTT): impaired VCaP and CWR-R1 cell growth
[5]; six days, bicalutamide 10 μM, p-values<0.05
  VCaP cell growth, combination with bicalutamide: enhanced the effect of bicalutamide
[6]; DHT-17C at 20 nM, DHT-3C at 20 nM
  CWR-R1 cell growth (MTT): impaired VCaP and CWR-R1 cell growth
[6]; bicalutamide 10 μM, p-values<0.05
  CWR-R1 cell growth, combination with bicalutamide: enhanced the effect of bicalutamide
[7]
  PC-3 cell growth (MTT): did not impair cell growth
[8]
  nuclear co-localization with AR-GFP and DRAQ5: co-localized with AR-GFP
[9]
  LNCaP cell growth (MTT): produced similar responses
[10]
  co-localization with AR-V2-GFP: co-localized with DRAQ5 and AR-V2-GFP
[11]
  competition for the AR-LBD of AR-V2: compete for the AR-LBD of wild-type AR and AR-V2
[12]
  competition for the AR-LBD of wild-type AR: compete for the AR-LBD of wild-type AR and AR-V2
[3]
  KLK2 transcript induction: did not induce KLK2 transcript formation
[13]
  CV-1 cell growth (MTT): did not impair cell growth
[14]
  LAPC-4 cell growth (MTT): produced similar responses
[15]
  293 cell growth (MTT): did not impair cell growth
[16]
  DU145 cell growth (MTT): did not impair cell growth

## C[C@]12CCC3C(CC[C@H]4C[C@H](O)CC[C@]34C)C1CC[C@@H]2OCC(=O)NCCc1cc(=O)oc2c3c4c(cc12)CCCN4CCC3 (stereo partly drawn) [DIOL-17C, N-2′-(2,3,4,5-Tetrahydro-1H,4H-10-keto-11-oxa-3α-azabenzo[de]anthracenyl)ethyl (3α-hydroxy-5α-androstan-17β-yl)glycolamide]
[5]; 20 nM, 6 days in SFM, FIG. 14 VCaP
  CaP cell growth (MTT): impaired CaP cell growth
[17]
  co-localization with RDH16-YFP and DRAQ5 in the nucleus: co-localized with RDH16-YFP
[18]
  3α-oxidoreductase metabolism to DHT-17C: did not impair 3α-oxidoreductase metabolism of DIOL-17C to DHT-17C
  free DIOL and orphan coumarin produced by cells: No orphan fluorophores were detected
[19]
  competition for RDH16-YFP: compete for RDH16-YFP

## C[C@]12CC[C@@H](O)C[C@@H]1CC[C@@H]1[C@@H]2CC[C@]2(C)[C@@H](O)CC[C@@H]12 [DIOL, 5α-androstane-3α,17β-diol, reference compound]
[2]
  ARE-luciferase signal: produced ARE-luciferase signal
[19]
  competition for RDH16-YFP: compete for RDH16-YFP
